Laboratory results reported in US12427168B2, “Extracellular vesicle and use thereof in skin products” (EV CELL BIOTECH (GUANGZHOU) CO., LTD., priority 2020, dated 2025).

Assays:
[1] = tested on: skin mesenchymal stem cells; experiment: Uptake of IEVs by skin mesenchymal stem cells, cell smear; format: cell-based; conditions: FIG. 13D
[2] = tested on: active-β-catenin; experiment: Active-β-catenin intensity in the skin, immunofluorescence; format: in vivo; conditions: with IEVs, FIG. 13E
[3] = tested on: mice; experiment: Wound healing of 1 cm×1 cm full-thickness wound; format: in vivo; conditions: for effect on promotion of wound healing by IEVs: with IEVs, FIG. 15B
Description: A 1 cm×1 cm full-thickness wound was made in mice, and the effect of systemic injections of MSCs and IEVs on wound healing was examined.

[4] = tested on: Wnt signaling pathways; experiment: Skin excretion of IEVs under Wnt agonist or inhibitor (Western Blot, immunofluorescence); format: in vivo; conditions: Licl 10 mg/kg or XAV939 1 mg/kg intraperitoneally for 3 days, FIGS. 13A-B
[5] = tested on: mice; experiment: Hair regrowth with IEVs alone or combined with anti-aging substances; format: in vivo; conditions: combined with IEVs, FIG. 12
Protocol: After systemic injection of PKH26-IEV in C57 mice, rapamycin (5 mg/kg), metformin (100 mg/kg), dadatinib (5 mg/kg) and resveratrol (10 mg/kg) were intraperitoneally injected for 7 days, respectively.

Compound | effect on uptake of IEVs by skin mesenchymal stem cells [1] | effect on IEV-stimulated activation of Wnt signaling pathways in the skin [2] | effect on promotion of wound healing by IEVs [3] | effect on skin excretion of IEVs [4] | IEVs accumulation in the wound site ([3]; immunofluorescence, FIG. 15C) | effect of the combination on hair regrowth promotion by IEVs [5]
Oc1nc(-c2ccc(C(F)(F)F)cc2)nc2c1CSCC2 [XAV939] | affected | attenuated this activation process | significantly attenuated the promotion of wound healing by IEVs |  |  | 
[Cl-].[Li+] [Licl] | affected |  | accelerated the promotion of wound healing by IEVs | significant increase in skin excretion of IEVs | significantly increased IEVs accumulation in the wound site | 
Oc1ccc(C=Cc2cc(O)cc(O)c2)cc1 [resveratrol] |  |  |  |  |  | promoted the promotion effects of hair regrowth by IEVs
CN(C)C(=N)N=C(N)N [metformin] |  |  |  |  |  | promoted the promotion effects of hair regrowth by IEVs
